Type in all cases: biochemical
The target of one assay is T1, FGFR3 V555M (Homo sapiens, UniProt P22607, V555M).
T1 construct: purchased Signalchem F06-12GG
Kind of assay: Assay I: inhibitory activity against FGFR mutants (HTRF KinEASE-TK). Particulars: ATP 20 μM, substrate TK 1 μM. As to the method: (§1) Assay I: Determination of Inhibitory Activity Against FGFR Mutants
(§2) 1. Reagents and Equipment
(§3) 2.1 Preparation of 1× Kinase Reaction Buffer:
(§4) 1× Kinase reaction buffer was formulated with 1× volume of 5× kinase reaction buffer and 4× volume of water; 5 mM MgCl2; and 1 mM DTT.
(§5) 2.3 Screening of Compounds:
(§6) 1. Diluting a compound 4-fold in a dilution plate with DMSO, with a starting compound concentration of 2 mM.
(§7) 2. Diluting the compound 40-fold into 1× kinase reaction buffer and shaking it on a shaker for 20 minutes.
(§8) 5. Adding 1 μl of the compound diluted in buffer to each well, sealing the plate with a sealing membrane and centrifuging the plate at 1000 g for 30 seconds and leaving it at room temperature for 10 minutes.
(§9) 6. Formulating 2.5×TK-substrate-biotin and ATP mixture with 1× enzyme reaction buffer and adding 2 μl of K-substrate-biotin/ATP mixture to the reaction plate.
(§10) 7. Sealing the plate with a sealing membrane and centrifuging the plate at 1000 g for 30 seconds and allowing it to react at room temperature for 50 minutes.
(§11) 8. Formulating 4× Sa-XL 665 (250 nM) with HTRF assay buffer.
(§12) 9. Adding 5 μl Sa-XL 665 and 5 μl TK-Antibody-Cryptate to each well, centrifuging it at 1000 g for 30 seconds, and allowing it to react for 1 hour at room temperature.
(§13) 10. Reading fluorescence signals at 615 nm (Cryptate) and 665 nm (XL665) with Biotek.
(§14) 3.1 Calculation of the ratio for each well: the ratio was calculated as 665/615 nm.
(§15) 3.3 Calculation of IC50 and plotting of inhibition curves for the compounds.
(§16) The IC50 (half inhibition concentration) of a compound was obtained using the following non-linear fitting equation, wherein data analysis was performed using Graphpad 6.0 software.
(§17) Y=Bottom+(Top−Bottom)/(1+10^((Log IC50−X)*Hill Slope)) • X: log value of compound concentration; and Y: inhibition rate (% inh)
(§18) 3.4 Validation of Results
(§19) Data were exported from Envision and analyzed manually. The ratios were converted to inhibition rates and IC50 was calculated by Prism GraphPad 6.0 from the inhibition rates. IC50 was calculated again by the ratios to verify accuracy of the results.

The target of another assay is T2, FGFR1 V561M (Homo sapiens, UniProt P11362, V561M).
T2 construct: purchased Signalchem F04-13G
T2 sequence (P11362 22-822 V561M): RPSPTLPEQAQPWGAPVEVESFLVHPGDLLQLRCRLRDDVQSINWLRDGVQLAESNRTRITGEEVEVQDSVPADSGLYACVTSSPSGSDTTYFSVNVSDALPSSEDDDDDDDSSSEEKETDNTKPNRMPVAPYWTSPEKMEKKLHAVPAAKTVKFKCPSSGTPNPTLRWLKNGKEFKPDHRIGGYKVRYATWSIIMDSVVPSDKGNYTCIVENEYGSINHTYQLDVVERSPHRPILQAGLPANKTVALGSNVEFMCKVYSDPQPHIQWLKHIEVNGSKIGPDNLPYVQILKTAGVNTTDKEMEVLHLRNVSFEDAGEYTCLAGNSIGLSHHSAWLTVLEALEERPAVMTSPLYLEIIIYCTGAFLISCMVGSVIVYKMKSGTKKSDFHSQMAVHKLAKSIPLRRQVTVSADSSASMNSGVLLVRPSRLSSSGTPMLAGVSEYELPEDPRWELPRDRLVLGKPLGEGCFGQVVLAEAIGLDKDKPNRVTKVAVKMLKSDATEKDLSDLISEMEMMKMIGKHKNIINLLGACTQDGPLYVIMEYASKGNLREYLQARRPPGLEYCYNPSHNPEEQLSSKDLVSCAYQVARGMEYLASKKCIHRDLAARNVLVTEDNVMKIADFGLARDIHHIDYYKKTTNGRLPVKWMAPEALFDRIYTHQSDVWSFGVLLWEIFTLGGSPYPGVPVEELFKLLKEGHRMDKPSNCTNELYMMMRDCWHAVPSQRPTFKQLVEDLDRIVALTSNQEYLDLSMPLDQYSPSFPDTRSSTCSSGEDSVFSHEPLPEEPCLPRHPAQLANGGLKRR
The assay is described as above. The following applies: ATP 5 μM, substrate TK 1 μM. The protocol: as §1, §2, §3, §4, §5, §6, §7, §8, §9, §10, §11, §12, §13, §14, §15, §16, §17, §18, §19

The target of another assay is T3, FGFR2 V564F (Homo sapiens, UniProt P21802, V564F).
T3 construct: purchased Signalchem F05-12FG
T3 sequence (P21802 22-821 V564F): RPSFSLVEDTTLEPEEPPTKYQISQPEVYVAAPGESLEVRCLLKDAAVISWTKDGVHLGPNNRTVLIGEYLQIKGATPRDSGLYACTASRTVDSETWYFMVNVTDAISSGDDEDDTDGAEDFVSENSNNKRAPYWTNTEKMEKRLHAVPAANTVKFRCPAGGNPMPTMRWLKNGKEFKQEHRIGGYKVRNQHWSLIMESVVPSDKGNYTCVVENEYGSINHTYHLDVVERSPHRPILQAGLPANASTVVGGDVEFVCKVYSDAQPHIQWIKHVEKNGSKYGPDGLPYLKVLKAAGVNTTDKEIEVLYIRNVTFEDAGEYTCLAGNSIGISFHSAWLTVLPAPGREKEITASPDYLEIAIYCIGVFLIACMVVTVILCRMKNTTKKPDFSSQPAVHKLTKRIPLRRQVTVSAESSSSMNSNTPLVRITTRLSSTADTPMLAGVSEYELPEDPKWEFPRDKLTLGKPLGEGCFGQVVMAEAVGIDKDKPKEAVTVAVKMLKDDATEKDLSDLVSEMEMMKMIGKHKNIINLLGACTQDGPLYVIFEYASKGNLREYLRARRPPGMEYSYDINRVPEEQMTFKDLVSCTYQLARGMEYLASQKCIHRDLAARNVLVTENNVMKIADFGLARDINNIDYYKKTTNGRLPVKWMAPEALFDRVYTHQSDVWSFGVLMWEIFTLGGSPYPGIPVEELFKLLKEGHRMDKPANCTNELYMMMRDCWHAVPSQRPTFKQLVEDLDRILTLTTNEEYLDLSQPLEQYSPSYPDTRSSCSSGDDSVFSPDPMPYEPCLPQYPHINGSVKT
Described as above. The following applies: ATP 10 μM, substrate TK 1 μM. The protocol: as §1, §2, §3, §4, §5, §6, §7, §8, §9, §10, §11, §12, §13, §14, §15, §16, §17, §18, §19

For a further assay, the target named is T4, VEGFR2 (Homo sapiens, UniProt P35968).
T4 construct: purchased Carna 08-191
T4 sequence (P35968 20-1356): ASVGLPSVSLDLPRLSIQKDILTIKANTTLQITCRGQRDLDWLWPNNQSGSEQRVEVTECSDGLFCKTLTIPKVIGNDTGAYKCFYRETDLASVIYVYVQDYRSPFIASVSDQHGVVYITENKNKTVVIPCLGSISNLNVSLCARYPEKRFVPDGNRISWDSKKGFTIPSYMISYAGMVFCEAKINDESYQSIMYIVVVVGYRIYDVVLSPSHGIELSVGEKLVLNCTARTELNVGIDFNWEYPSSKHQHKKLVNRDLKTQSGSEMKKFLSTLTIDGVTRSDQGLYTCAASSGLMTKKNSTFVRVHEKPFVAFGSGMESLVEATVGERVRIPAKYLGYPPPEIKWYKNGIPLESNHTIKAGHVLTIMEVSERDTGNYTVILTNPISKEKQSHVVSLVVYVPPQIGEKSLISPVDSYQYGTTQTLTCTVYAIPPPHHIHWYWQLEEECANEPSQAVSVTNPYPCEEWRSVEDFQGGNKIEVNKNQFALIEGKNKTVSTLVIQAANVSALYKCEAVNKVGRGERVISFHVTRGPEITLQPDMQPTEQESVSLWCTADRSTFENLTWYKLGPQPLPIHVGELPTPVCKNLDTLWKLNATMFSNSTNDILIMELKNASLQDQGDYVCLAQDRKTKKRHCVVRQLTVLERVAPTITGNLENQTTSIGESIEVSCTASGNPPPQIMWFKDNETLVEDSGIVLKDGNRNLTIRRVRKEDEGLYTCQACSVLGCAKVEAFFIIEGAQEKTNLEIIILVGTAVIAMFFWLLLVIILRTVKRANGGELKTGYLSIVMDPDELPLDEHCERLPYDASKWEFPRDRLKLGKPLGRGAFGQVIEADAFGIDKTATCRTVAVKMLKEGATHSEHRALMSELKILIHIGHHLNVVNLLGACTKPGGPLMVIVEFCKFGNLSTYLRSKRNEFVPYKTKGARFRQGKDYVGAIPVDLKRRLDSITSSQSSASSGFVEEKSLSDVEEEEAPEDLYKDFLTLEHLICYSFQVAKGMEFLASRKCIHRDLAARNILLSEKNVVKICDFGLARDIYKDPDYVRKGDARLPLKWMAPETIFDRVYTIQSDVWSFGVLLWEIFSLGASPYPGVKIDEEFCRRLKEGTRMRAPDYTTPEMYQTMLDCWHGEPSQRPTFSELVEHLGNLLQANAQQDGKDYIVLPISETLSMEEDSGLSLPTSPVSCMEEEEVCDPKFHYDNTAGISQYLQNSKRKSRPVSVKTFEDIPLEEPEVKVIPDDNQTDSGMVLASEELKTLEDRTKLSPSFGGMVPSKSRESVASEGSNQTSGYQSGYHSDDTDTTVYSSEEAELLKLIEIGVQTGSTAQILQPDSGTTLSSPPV
Kind of assay: Assay I: VEGFR2 kinase inhibition (HTRF KinEASE-TK). Particulars: ATP 5 μM, substrate TK 1 μM. The protocol: as §1, §2, §3, §4, §5, §6, §7
3. Formulating 2×FGFR1 V561M/FGFR2 V564F/FGFR3 K650E/VEGFR2 with 1× of enzyme reaction buffer.
4. Adding 2 μl FGFR1 V561M/FGFR2 V564F/FGFR3 K650E/VEGFR2 kinase (formulated in step 3) to each well of the reaction plate.
as §8, §9, §10, §11, §12, §13, §14, §15, §16, §17, §18, §19
Positive control IC50 was within 3 times of the average value

T1 sequence (P22607 397-806 V555M limits assumed): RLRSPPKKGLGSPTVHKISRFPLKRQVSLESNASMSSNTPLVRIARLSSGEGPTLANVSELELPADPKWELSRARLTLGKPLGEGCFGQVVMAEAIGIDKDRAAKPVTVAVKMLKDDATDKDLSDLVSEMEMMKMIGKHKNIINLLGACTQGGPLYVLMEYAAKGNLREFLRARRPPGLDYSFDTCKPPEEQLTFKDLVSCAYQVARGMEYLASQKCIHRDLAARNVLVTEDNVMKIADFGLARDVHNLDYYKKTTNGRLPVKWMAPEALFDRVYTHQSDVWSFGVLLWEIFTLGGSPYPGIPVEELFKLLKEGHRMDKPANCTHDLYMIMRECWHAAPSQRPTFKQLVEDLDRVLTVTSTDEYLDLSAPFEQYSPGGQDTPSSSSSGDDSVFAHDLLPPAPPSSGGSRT

Regarding `C[C@@H](Oc1ccc2[nH]nc(-c3nc4c([nH]3)CN(C3CCCN(C)C3)C4)c2c1)c1c(Cl)cncc1Cl` (stereo partly drawn) [Compound 38, 5-((R)-1-(3,5-Dichloropyridin-4-yl)ethoxy)-3-(5-(1-methylpiperidin-3-yl)-1,4,5,6-tetrahydropyrrolo[3,4-d]imidazol-2-yl)-1H-indazole], the IC50 is 0.15 nM against FGFR3 V555M, 0.75 nM on FGFR1 V561M, 0.19 nM at FGFR2 V564F and 15.7 nM against VEGFR2.

Consider `C[C@@H](Oc1ccc2[nH]nc(-c3nc4c([nH]3)CN(C(=O)CN3CCCC3)C4)c2c1)c1c(Cl)cncc1Cl` [Compound 40, (R)-1-(2-(5-(1-(3,5-dichloropyridin-4-yl)ethoxy)-1H-indazol-3-yl)-4,6-dihydropyrrolo[3,4-d]imidazol-5(1H)-yl)-2-(pyrrolidin-1-yl)ethan-1-one], for which the IC50 against FGFR3 V555M was 0.26 nM; against FGFR1 V561M, 0.39 nM; against FGFR2 V564F, 0.32 nM; at VEGFR2, 4.7 nM.

With `C[C@@H](Oc1ccc2[nH]nc(-c3nc4c([nH]3)CN(C(=O)CN3CC[C@@H](O)C3)C4)c2c1)c1c(Cl)cncc1Cl` [Compound 41, 1-(2-(5-((R)-1-(3,5-Dichloropyridin-4-yl)ethoxy)-1H-indazol-3-yl)-4,6-dihydropyrrolo[3,4-d]imidazol-5(1H)-yl)-2-((R)-3-hydroxypyrrolidin-1-yl)ethan-1-one], the IC50 against FGFR3 V555M was 0.1 nM; against FGFR1 V561M, 0.26 nM; against FGFR2 V564F it was 0.23 nM; against VEGFR2 it was 2.4 nM.

Take `C[C@@H](Oc1ccc2[nH]nc(-c3nc4c([nH]3)CN(C(=O)CN3CC[C@H](O)C3)C4)c2c1)c1c(Cl)cncc1Cl` [Compound 42, 1-(2-(5-((R)-1-(3,5-Dichloropyridin-4-yl)ethoxy)-1H-indazol-3-yl)-4,6-dihydropyrrolo[3,4-d]imidazol-5(1H)-yl)-2-((S)-3-hydroxypyrrolidin-1-yl)ethan-1-one]: the IC50 is 0.33 nM against FGFR3 V555M, 1 nM against FGFR1 V561M, 0.18 nM on FGFR2 V564F and 10.3 nM against VEGFR2.

Consider `C[C@@H](Oc1ccc2[nH]nc(-c3nc4c([nH]3)CN(C(=O)CN(C)C)C4)c2c1)c1c(Cl)cncc1Cl` [Compound 43, (R)-1-(2-(5-(1-(3,5-dichloropyridin-4-yl)ethoxy)-1H-indazol-3-yl)-4,6-dihydropyrrolo[3,4-d]imidazol-5(1H)-yl)-2-(dimethylamino)ethan-1-one], for which the half-maximal inhibitory concentration (IC50) at FGFR3 V555M turned out to be 0.35 nM; at FGFR1 V561M, 0.26 nM; on FGFR2 V564F it was 0.13 nM; on VEGFR2, 3.3 nM.

For `C[C@@H](Oc1ccc2[nH]nc(-c3nc4c([nH]3)CN(C(=O)[C@@H]3CCCN3)C4)c2c1)c1c(Cl)cncc1Cl` [Compound 44, 3-(5-(L-prolinyl)-1,4,5,6-tetrahydropyrrolo[3,4-d]imidazol-2-yl)-5-((R)-1-(3,5-dichloropyridin-4-yl)ethoxy)-1H-indazole], the IC50 on FGFR3 V555M is 0.43 nM; against FGFR1 V561M, 0.82 nM; at FGFR2 V564F, 0.32 nM; at VEGFR2, 5.3 nM.

As for `C[C@@H](Oc1ccc2[nH]nc(-c3nc4c([nH]3)CN(C(=O)[C@@H]3CCCN3C)C4)c2c1)c1c(Cl)cncc1Cl` [Compound 45, 5-((R)-1-(3,5-dichloropyridin-4-yl)ethoxy)-3-(5-(methyl-L-prolinyl)-1,4,5,6-tetrahydropyrrolo[3,4-d]imidazol-2-yl)-1H-indazole], the IC50 against FGFR3 V555M stood at 0.18 nM; on FGFR1 V561M, 0.81 nM; against FGFR2 V564F it was 0.36 nM; on VEGFR2 it was 7.6 nM.

In the case of `C[C@@H](Oc1ccc2[nH]nc(-c3nc4c([nH]3)CN(C(=O)[C@@H]3CCCCN3)C4)c2c1)c1c(Cl)cncc1Cl` [Compound 46, (2-(5-((R)-1-(3,5-dichloropyridin-4-yl)ethoxy)-1H-indazol-3-yl)-4,6-dihydropyrrolo[3,4-d]imidazol-5(1H)-yl)((S)-piperidin-2-yl)ketone], the IC50 on FGFR3 V555M came out at 0.33 nM; against FGFR1 V561M, 0.65 nM; against FGFR2 V564F it was 0.29 nM; against VEGFR2 it was 9.9 nM.

Consider `C[C@@H](Oc1ccc2[nH]nc(-c3nc4c([nH]3)CN(C(=O)[C@@H]3CCCCN3C)C4)c2c1)c1c(Cl)cncc1Cl` [Compound 47, (2-(5-((R)-1-(3,5-dichloropyridin-4-yl)ethoxy)-1H-indazol-3-yl)-4,6-dihydropyrrolo[3,4-d]imidazol-5(1H)-yl)((S)-1-methylpiperidin-2-yl)ketone], for which the IC50 at FGFR3 V555M was determined as 0.14 nM; against FGFR1 V561M it was 0.29 nM; at FGFR2 V564F, 0.21 nM; against VEGFR2 it was 2.5 nM.

With `C[C@@H](Oc1ccc2[nH]nc(-c3nc4c([nH]3)CN(C(=O)CN3CCCCC3)C4)c2c1)c1c(Cl)cncc1Cl` [Compound 50, (R)-1-(2-(5-(1-(3,5-dichloropyridin-4-yl)ethoxy)-1H-indazol-3-yl)-4,6-dihydropyrrolo[3,4-d]imidazol-5(1H)-yl)-2-(piperidin-1-yl)ethan-1-one], the IC50 against FGFR3 V555M was found to be 0.35 nM; against FGFR1 V561M it was 1.2 nM; at FGFR2 V564F, 0.21 nM; against VEGFR2 it was 8.4 nM.

In the case of `C[C@@H](Oc1ccc2[nH]nc(-c3nc4c([nH]3)CN(C(=O)CN3CCC3)C4)c2c1)c1c(Cl)cncc1Cl` [Compound 51, (R)-2-(Azetidin-1-yl)-1-(2-(5-(1-(3,5-dichloropyridin-4-yl)ethoxy)-1H-indazol-3-yl)-4,6-dihydropyrrolo[3,4-d]imidazol-5(1H)-yl)ethan-1-one], the IC50 stood at 0.16 nM against FGFR3 V555M, 0.74 nM at FGFR1 V561M, 0.21 nM at FGFR2 V564F and 14.2 nM on VEGFR2.

On to `C[C@@H](Oc1ccc2[nH]nc(-c3nc4c([nH]3)CN(C(=O)CN3CC(O)C3)C4)c2c1)c1c(Cl)cncc1Cl` [Compound 52, (R)-1-(2-(5-(1-(3,5-Dichloropyridin-4-yl)ethoxy)-1H-indazol-3-yl)-4,6-dihydropyrrolo[3,4-d]imidazol-5(1H)-yl)-2-(3-hydroxyazetidin-1-yl)ethan-1-one], for which the IC50 is 0.14 nM on FGFR3 V555M, 0.87 nM on FGFR1 V561M, 0.16 nM against FGFR2 V564F and 13.6 nM on VEGFR2.

Regarding `C[C@@H](Oc1ccc2[nH]nc(-c3nc4c([nH]3)CN(C(=O)CN3CC(F)C3)C4)c2c1)c1c(Cl)cncc1Cl` [Compound 53, (R)-1-(2-(5-(1-(3,5-dichloropyridin-4-yl)ethoxy)-1H-indazol-3-yl)-4,6-dihydropyrrolo[3,4-d]imidazol-5(1H)-yl)-2-(3-fluoroazetidin-1-yl)ethan-1-one], the IC50 against FGFR3 V555M turned out to be 1.9 nM; on FGFR1 V561M it was 6.4 nM; on FGFR2 V564F, 0.82 nM; against VEGFR2, 45.5 nM.

`C[C@@H](Oc1ccc2[nH]nc(-c3nc4c([nH]3)CN(C(=O)OCCN(C)C)C4)c2c1)c1c(Cl)cncc1Cl` [Compound 54, 2-(dimethylamino)ethyl(R)-2-(5-(1-(3,5-dichloropyridin-4-yl)ethoxy)-1H-indazol-3-yl)-4,6-dihydropyrrolo[3,4-d]imidazole-5(1H)-carboxylate]: the half-inhibitory concentration (IC50) against FGFR3 V555M is 0.11 nM; against FGFR1 V561M, 0.55 nM; on FGFR2 V564F, 0.15 nM; against VEGFR2, 3.3 nM.

In the case of `C[C@@H](Oc1ccc2[nH]nc(-c3nc4c([nH]3)CN(C(=O)OC3CCN(C)C3)C4)c2c1)c1c(Cl)cncc1Cl` (stereo partly drawn) [Compound 55, 1-Methylpyrrolidin-3-yl 2-(5-((R)-1-(3,5-dichloropyridin-4-yl)ethoxy)-1H-indazol-3-yl)-4,6-dihydropyrrolo[3,4-d]imidazole-5(1H)-carboxylate], the IC50 at FGFR3 V555M is 0.87 nM; on FGFR1 V561M, 5.1 nM; against FGFR2 V564F it was 0.34 nM; at VEGFR2 it was 13.4 nM.

The values above are taken from patent US20230374025A1, “FGFR INHIBITOR COMPOUND AND USE THEREOF” (SHENZHEN KANGSU PHARMACEUTICAL TECHNOLOGY CO., LTD., priority 2021, published 2023).
